Experimental findings from patent publication US10434191B2, “Optical imaging probes” (THE UNIVERSITY COURT OF THE UNIVERSITY OF EDINBURGH, priority 2011, dated 2019) are described below.

Entries after “also recorded” stand apart in the source; their conditions may differ.

The subject of assay [1] is freshly isolated human neutrophils (PMNs). In words: Live time-lapse confocal imaging of probe uptake in activated human neutrophils. It counts as cell-based. Here is the method: (§1) Human peripheral blood leukocytes from healthy volunteers were prepared as previously described^25. Briefly, citrated blood was centrifuged at room temperature for 20 min at 350 g, and platelet-rich plasma was removed. Autologous serum was prepared by recalcification of platelet-rich plasma by addition of CaCl2 to a final concentration of 2 mM. Leukocytes were separated from erythrocytes by dextran sedimentation using 0.6% dextran T500 (Pharmacia, Milton Keynes, UK), and the leukocyte-rich upper layer was then fractionated using isotonic Percoll (Pharmacia). Neutrophils and mononuclear leukocytes (PBMC) were harvested from the 68%181% and 55/68% interfaces, respectively. In some experiments, neutrophils were labelled with DiD (Invitrogen, molecular probes) (2.5 μM) in D-PBS (w/o Ca/Mg) for 20 min at room temperature.
A laser-scanning confocal imaging system (LSM510; Carl Zeiss, Jena, Germany), incorporating an upright Axioskop FS2 microscope (63× objective) was used for image acquisition and processing. Exposure to 488 nm light was limited to 1-6% of the maximum laser power in order to minimize photobleaching and toxicity. In all cases, images were obtained without Kalman averaging and typically with a pixel dwell time of 3.2 μs with a pinhole diameter corresponding to 1 Airy unit. In multiple-labelling experiments pinhole diameters were adjusted to give optical Z-sections of equivalent depths, corresponding to 1 Airy unit for the longest excitation wavelength. All live time-lapse imaging of was performed in IMDM. Coverslips were transferred to a thermostatted environmental stage (POC Mini) maintained at 30° C.^26. Drugs were added by bath addition. In experiments where fluorescein was examined alone, the fluorophore was excited with a dedicated 488 nm line, and emitted light reflected from a NFT545 filter and passed through an LP505 filter.
In multiple labelling experiments involving membrane (DiD, Invitrogen), or dextran-647, and IQR probes, images were obtained simultaneously. DiD or dextran-647 was excited with a dedicated 633 nm line, and emitted light detected with meta detector (650-705 nm), whereas Fluorescein was excited with a dedicated 488 nm line, and emitted light reflected from a NFT545 filter and passed through an LP505 filter.
Neutrophils and mononuclear cells (6×10^5 cells total), or PBMC-derived macrophages, were seeded onto glass coverslips pre-coated with 10 μg/ml fibronectin (Sigma). Cells were allowed to adhere and 10 μM (final concentration) IQR1.2 added to wells prior to transfer to POC mini and placement in environmental chamber. Live imaging commenced at 30 s intervals. Baseline images were acquired for 10-15 min prior to addition of A21387 (10 μM, Sigma) and live time-lapse confocal images acquired for further 20 min. Where sivelestat or dynasore was included, cells were pretreated for 10 minutes prior to imaging.

The test system of assay [2] is PMNs, monocytes and lymphocytes. The assay is described as follows: Human cell specificity by live confocal imaging. It is filed as cell-based. The settings on record: PMNs vs monocytes vs lymphocytes. Here is the method:
as §1, with “temperature. […]” for “temperature.”
In multiple labelling experiments using IQR probes in combination with syto-85 (Invitrogen, 2.5 μM, 30 minutes, 37° C.), images were acquired sequentially. Fluorescein was excited with a dedicated 488 nm line and emitted light reflected from a NFT545 filter and passed through an LP505 filter whereas syto-85 were excited with a dedicated 543 nm line, and emitted light detected with meta detector ([…]). […]

In assay [3] the test system is freshly isolated human neutrophils. The assay is described as follows: In vitro Cellvizio 488 nm fibreoptic confocal imaging. It counts as cell-based. Here is the method:
Human neutrophils were isolated as described above and suspended in PBS with or without activating agents. A fibreoptic confocal system (488 Cellvizio) was used to acquire images in eppendorfs of cells both in the presence of free FAM and IQRs and after washing cells of free FAM and IQR in media. Imaging was performed for 60 s and representative still frames converted to bmp format.

The subject of assay [4] is human neutrophil lysate. The assay is described as follows: Fluorescent microplate reader dequenching with neutrophil lysate. It counts as biochemical. The settings on record: 50 uM. The protocol:
For experiments using neutrophil lysate, IQR4 (0.5 uM) is incubated with freeze-thawed neutrophil lysate (10×10^8 cells/ml) in IMDM with or without sivelestat (50 uM). The timecourse of fluorescence dequenching was followed for 30 min with a fluorescence microplate reader (excitation 480/20, emission 528/25).

For assay [5], the target named is T1, recombinant human neutrophil elastase (HNE) (Homo sapiens, UniProt P08246).
T1 sequence (P08246 30-267): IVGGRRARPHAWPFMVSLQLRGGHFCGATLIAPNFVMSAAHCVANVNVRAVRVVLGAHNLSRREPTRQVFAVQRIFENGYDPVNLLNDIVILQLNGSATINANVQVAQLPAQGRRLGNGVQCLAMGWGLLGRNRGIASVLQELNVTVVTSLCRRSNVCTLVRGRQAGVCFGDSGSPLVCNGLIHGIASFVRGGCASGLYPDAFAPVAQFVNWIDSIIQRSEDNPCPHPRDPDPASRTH
In words: Fluorescent microplate reader dequenching with HNE. It counts as biochemical. The settings on record: 50 uM.
Description: IQR4 (0.5 uM) was incubated with of human neutrophil elastase (HNE; 11.3 ug/ml) in reaction buffer (50 mm Hepes buffer, pH 7.4, 0.75 m NaCl, 0.05% Igepal CA-630 (v/v)) with or without of sivelestat (50 uM). The timecourse of fluorescence dequenching was followed for 30 min with a fluorescence microplate reader (excitation 480/20, emission 528/25).

Consider 5(6)-carboxyfluorescein [FAM], for which, in assay [1] (activated neutrophils, Dynasore pretreatment), the “probe uptake after pretreatment with dynamin inhibitor Dynasore” value is reported as “prevented”. For the same molecule, the “appearance of punctate cell-associated fluorescence” value in assay [1] (activation with 10 μM A23187 (calcium ionophore), confocal imaging) was “rapid appearance of punctate cell-associated fluorescence”. For the same molecule, in assay [2], the “cell specificity of probe uptake/activation” value was “Only activated PMN's internalise FAM”. In addition, the “resolution of activated cells before wash” value in assay [3] (15 min exposure, probe in medium) was “not possible to resolve activated cells”. The “visibility of activated cells after washing” value in assay [3] (cells spun down, probe removed) is reported as “activated cells are visible”.

Turning to `O=C(N/N=C/c1ccc(O)c(O)c1)c1cc2ccccc2cc1O` [Dynasore], the “effect on uptake of IQR1.2 by activated neutrophils” value in assay [1] (pre-treatment, probe IQR1.2) is recorded as “prevented”. The “effect on uptake of FAM by activated neutrophils” value in assay [1] (pretreatment, probe FAM) is “prevented”. In addition, the “effect on cell-associated fluorescence of IQR1 in activated neutrophils” value in assay [1] (probe IQR1) is listed as “inhibited”.

Turning to `CC(C)(C)C(=O)Oc1ccc(S(=O)(=O)Nc2ccccc2C(=O)NCC(=O)O)cc1` [sivelestat], the “effect on punctate cell-associated fluorescence from probe IQR4 in activated neutrophils” value in assay [1] (50 μM, pre-treatment 10 mins, A23187) is “blocked; also recorded: inhibits the appearance of this punctate cell-associated fluorescence”. Moreover, the “effect on neutrophil lysate-induced dequenching of IQR4” value in assay [4] was “blocked; also recorded: inhibited”. In assay [5], the “effect on HNE-induced dequenching of IQR4” value was “inhibited; also recorded: blocked”.
